The source of these data is PubChem BioAssay AID248 (DTP/NCI, 2004).

This assay concerns L1210 leukemia ip in BDF1 mice, survival T/C. Description: NCI In Vivo Anticancer Drug Screen. Data for tumor model L1210 Leukemia (intraperitoneal) in B6D2F1 (BDF1) mice. Conditions: endpoint: mean survival time, higher = longer survival. Put shortly: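 Value reflects the ratio of survival in compound-treated mice to survival in vehicle-treated controls, with both groups carrying the same transplanted tumor.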

Setting [1] is: dose: 100.0 mg/kg/injection, schedule: Q01DX001 (ip), vehicle: carboxymethylcellulose (CMC).
The mark [2] stands for this setting: dose: 200.0 mg/kg/injection, schedule: Q01DX001 (ip), vehicle: carboxymethylcellulose (CMC).
The mark [3] stands for this setting: dose: 400.0 mg/kg/injection, schedule: Q01DX001 (ip), vehicle: carboxymethylcellulose (CMC).
Setting [4] is: dose: 100.0 mg/kg/injection, schedule: Q01DX009 (ip), vehicle: Klucel (hydroxypropylcellulose) (HPC).
The mark [5] stands for this setting: dose: 100.0 mg/kg/injection, schedule: Q04DX003 (ip), vehicle: Klucel (hydroxypropylcellulose) (HPC).
[6] abbreviates: dose: 200.0 mg/kg/injection, schedule: Q01DX009 (ip), vehicle: Klucel (hydroxypropylcellulose) (HPC).
[7] abbreviates: dose: 200.0 mg/kg/injection, schedule: Q04DX003 (ip), vehicle: Klucel (hydroxypropylcellulose) (HPC).
The mark [8] stands for this setting: dose: 400.0 mg/kg/injection, schedule: Q01DX009 (ip), vehicle: Klucel (hydroxypropylcellulose) (HPC).
Where [9] appears, read: dose: 400.0 mg/kg/injection, schedule: Q04DX003 (ip), vehicle: Klucel (hydroxypropylcellulose) (HPC).
Setting [10] is: dose: 100.0 mg/kg/injection, schedule: Q01DX001 (ip), vehicle: other.
Setting [11] is: dose: 200.0 mg/kg/injection, schedule: Q01DX001 (ip), vehicle: other.
[12] abbreviates: dose: 400.0 mg/kg/injection, schedule: Q01DX001 (ip), vehicle: other.
[13] abbreviates: dose: 100.0 mg/kg/injection, schedule: Q01DX001 (ip), vehicle: saline.
The mark [14] stands for this setting: dose: 200.0 mg/kg/injection, schedule: Q01DX001 (ip), vehicle: saline.
[15] abbreviates: dose: 100.0 mg/kg/injection, schedule: Q04DX002 (ip), vehicle: saline with Tween-80.
Setting [16] is: dose: 200.0 mg/kg/injection, schedule: Q04DX002 (ip), vehicle: saline with Tween-80.
The mark [17] stands for this setting: dose: 400.0 mg/kg/injection, schedule: Q04DX002 (ip), vehicle: saline with Tween-80.
[18] abbreviates: dose: 100.0 mg/kg/injection, schedule: Q01DX009 (ip), vehicle: saline with Tween-80.
The mark [19] stands for this setting: dose: 100.0 mg/kg/injection, schedule: Q04DX003 (ip), vehicle: saline with Tween-80.
Where [20] appears, read: dose: 200.0 mg/kg/injection, schedule: Q04DX003 (ip), vehicle: saline with Tween-80.
Setting [21] is: dose: 400.0 mg/kg/injection, schedule: Q01DX009 (ip), vehicle: saline with Tween-80.
[22] abbreviates: dose: 400.0 mg/kg/injection, schedule: Q04DX003 (ip), vehicle: saline with Tween-80.

Where “and” joins values, the source holds several entries; their conditions need not be identical. Equal entries are not always repeated. Inconclusive results and toxic doses are left out.

`O=C(O)CCCc1nc2ccccc2c(=O)[nH]1`: the T/C (dose: 44.0 mg/kg/injection, schedule: Q01DX001 (ip), vehicle: carboxymethylcellulose (CMC)) is 101 % of control and 103 % of control; the T/C (dose: 50.0 mg/kg/injection, schedule: Q01DX001 (ip), vehicle: carboxymethylcellulose (CMC)) was 108 % of control; the T/C (dose: 66.0 mg/kg/injection, schedule: Q01DX001 (ip), vehicle: carboxymethylcellulose (CMC)) is 98 % of control and 103 % of control; the T/C under setting [1] is 98 % of control and 100 % of control; the T/C (dose: 150.0 mg/kg/injection, schedule: Q01DX001 (ip), vehicle: carboxymethylcellulose (CMC)) is 93 % of control and 100 % of control; the T/C under setting [2] is 106 % of control. Under setting [3], the T/C was 101 % of control.
With `O/N=C1\c2cc(Cl)ccc2-c2c(Cl)cc(Cl)cc21`, the T/C by setting is: under setting [1], 115 % of control; under setting [2], 100 % of control; under setting [3], 97 % of control.
As to `Cc1cc(NS(=O)(=O)c2ccccc2)c2c(c1NS(=O)(=O)c1ccccc1)CC=CC2`, the T/C under setting [4] is 103 % of control; the T/C under setting [5] is 103 % of control; the T/C under setting [6] was 100 % of control; the T/C under setting [7] is 95 % of control; the T/C under setting [8] was 111 % of control; the T/C under setting [9] was 94 % of control.
With `NCCO[Si](OCCN)(OCCN)OCCN`, the T/C by setting is: (dose: 50.0 mg/kg/injection, schedule: Q01DX009 (ip), vehicle: saline) 93 % of control; (dose: 100.0 mg/kg/injection, schedule: Q01DX009 (ip), vehicle: saline) 88 % of control.
`Cc1ccc(NC(=O)c2cc3ccccc3cc2O)c(C)c1`: the T/C under setting [10] is 92 % of control; the T/C under setting [5] is 100 % of control; the T/C under setting [11] is 92 % of control; the T/C under setting [7] is 94 % of control; the T/C under setting [12] is 92 % of control; the T/C under setting [9] was 105 % of control.
`Nc1nc[nH]c1C(=O)NO`: the T/C by setting is: under setting [13], 100 % of control; under setting [14], 103 % of control; (dose: 400.0 mg/kg/injection, schedule: Q01DX001 (ip), vehicle: saline) 92 % of control.
In the case of `CCCCCCCC/C=C\CCCCCCCC(=O)O.[Cu+2]`, the T/C by setting is: under setting [13], 105 % of control; under setting [14], 96 % of control.
Turning to `CN(C)c1nc(N)c(N=O)c(N)n1`, the T/C under setting [15] is 111 % of control, the T/C under setting [16] was 107 % of control and the T/C under setting [17] is 104 % of control.
Regarding `COc1ccc(C=NC(C)(C)CO)cc1OC`, the T/C is 108 % of control (dose: 100.0 mg/kg/injection, schedule: Q01DX001 (ip), vehicle: steriod suspending solution); 103 % of control (dose: 200.0 mg/kg/injection, schedule: Q01DX001 (ip), vehicle: steriod suspending solution); 101 % of control (dose: 400.0 mg/kg/injection, schedule: Q01DX001 (ip), vehicle: steriod suspending solution).
Take `CCOP(=O)(NC=S)OCC`: for the setting “dose: 75.0 mg/kg/injection, schedule: Q01DX001 (ip), vehicle: saline”, the T/C is 96 % of control.
As to `CC1(C)Cc2cccc(Br)c2O1`, the T/C under setting [10] was 98 % of control, the T/C under setting [11] was 103 % of control and the T/C under setting [12] was 97 % of control.
Turning to `NCCCOC12CC3CC(CC(C3)C1)C2`, the T/C (dose: 10.0 mg/kg/injection, schedule: Q04DX002 (ip), vehicle: saline) is 106 % of control; the T/C (dose: 20.0 mg/kg/injection, schedule: Q04DX002 (ip), vehicle: saline) was 117 % of control; the T/C (dose: 40.0 mg/kg/injection, schedule: Q04DX002 (ip), vehicle: saline) is 102 % of control.
As to `N=C(N)c1ccc(-n2cc3cc(C(=N)N)ccc3n2)cc1`, the T/C is, setting by setting: (dose: 6.25 mg/kg/injection, schedule: Q04DX003 (ip), vehicle: saline) 96 % of control and 110 % of control; (dose: 12.5 mg/kg/injection, schedule: Q04DX003 (ip), vehicle: saline) 100 % of control; (dose: 25.0 mg/kg/injection, schedule: Q04DX003 (ip), vehicle: saline) 106 % of control and 91 % of control.
For the compound `S=P(N1CCOCC1)(N1CCOCC1)N1CCOCC1`, the T/C (dose: 100.0 mg/kg/injection, schedule: Q04DX002 (ip), vehicle: Klucel (hydroxypropylcellulose) (HPC)) is 103 % of control; the T/C (dose: 200.0 mg/kg/injection, schedule: Q04DX002 (ip), vehicle: Klucel (hydroxypropylcellulose) (HPC)) was 89 % of control; the T/C (dose: 400.0 mg/kg/injection, schedule: Q04DX002 (ip), vehicle: Klucel (hydroxypropylcellulose) (HPC)) was 113 % of control.
For the compound `Cc1cc(C)c(C(=O)c2ccccc2C(=O)OC(=O)c2ccccc2C(=O)c2c(C)cc(C)cc2C)c(C)c1`, the T/C under setting [15] is 88 % of control.
Turning to `O=[N+]([O-])c1ncn[nH]1`, the T/C by setting is: under setting [18], 96 % of control; under setting [19], 102 % of control; under setting [20], 97 % of control; under setting [21], 87 % of control; under setting [22], 92 % of control.
`COC(=O)CCCCCCCCC(C)c1ccccc1` (configuration not stated): the T/C is, setting by setting: under setting [4], 98 % of control; (dose: 100.0 mg/kg/injection, schedule: Q04DX003 (ip), vehicle: saline) 103 % of control; under setting [6], 92 % of control; (dose: 200.0 mg/kg/injection, schedule: Q04DX003 (ip), vehicle: saline) 89 % of control; under setting [8], 97 % of control; (dose: 400.0 mg/kg/injection, schedule: Q04DX003 (ip), vehicle: saline) 92 % of control.
Turning to `Cc1c2ccncc2c(C)c2c1[nH]c1ccc(O)cc12`, the T/C (dose: 3.1 mg/kg/injection, schedule: Q01DX009 (ip), vehicle: saline with Tween-80) is 158 % of control; the T/C (dose: 6.25 mg/kg/injection, schedule: Q01DX009 (ip), vehicle: saline with Tween-80) is 100 % of control; the T/C (dose: 6.3 mg/kg/injection, schedule: Q04DX003 (ip), vehicle: saline with Tween-80) is 122 % of control; the T/C (dose: 12.5 mg/kg/injection, schedule: Q01DX001 (oral), vehicle: saline with Tween-80) is 104 % of control; the T/C (dose: 12.5 mg/kg/injection, schedule: Q01DX009 (ip), vehicle: saline with Tween-80) was 98 % of control; the T/C (dose: 25.0 mg/kg/injection, schedule: Q01DX001 (oral), vehicle: saline with Tween-80) is 106 % of control. The T/C is 104 % of control (dose: 50.0 mg/kg/injection, schedule: Q01DX001 (oral), vehicle: saline with Tween-80); 98 % of control (dose: 50.0 mg/kg/injection, schedule: Q04DX003 (ip), vehicle: saline with Tween-80); 114 % of control (dose: 100.0 mg/kg/injection, schedule: Q01DX001 (oral), vehicle: saline with Tween-80); 112 % of control (dose: 200.0 mg/kg/injection, schedule: Q01DX001 (oral), vehicle: saline with Tween-80).
In the case of `COc1ccc(OC(=O)Nc2ccc(Cl)cc2[N+](=O)[O-])cc1`, the T/C was 95 % of control and 96 % of control under setting [18]; 95 % of control and 98 % of control under setting [15]; 97 % of control under setting [19]; 99 % of control and 106 % of control (dose: 200.0 mg/kg/injection, schedule: Q01DX009 (ip), vehicle: saline with Tween-80); 95 % of control and 101 % of control under setting [16]; 110 % of control under setting [20]. Besides, the T/C by setting is: under setting [21], 99 % of control and 103 % of control; under setting [17], 95 % of control and 98 % of control; under setting [22], 100 % of control.
Turning to `CNC(=O)OCc1c(COC(=O)NC)c(-c2ccc(Cl)c(Cl)c2)n2c1CCC2`, the T/C is 106 % of control (dose: 12.5 mg/kg/injection, schedule: Q01DX009 (ip), vehicle: Klucel (hydroxypropylcellulose) (HPC)); 109 % of control (dose: 25.0 mg/kg/injection, schedule: Q01DX009 (ip), vehicle: Klucel (hydroxypropylcellulose) (HPC)); 124 % of control (dose: 50.0 mg/kg/injection, schedule: Q01DX009 (ip), vehicle: Klucel (hydroxypropylcellulose) (HPC)).
